Measured values reported in article PMC12419160 (The Journal of Cell Biology, 2025).
pKd: −log10 of the molar value.

Biological target: T1, PILS-Nir1 (6xHis-tagged LNS2 domain of Nir1) (Homo sapiens, UniProt Q9BZ71)
T1 construct: gene PITPNM3; LNS2 (PILS) domain, residues 609-912 in Methods but 604-912 in Results; TEV-cleavable N-terminal 6xHis tag (pTHT), codon-optimised, expressed in E. coli BL21(DE3) RIPL
T1 sequence (Q9BZ71 609-912): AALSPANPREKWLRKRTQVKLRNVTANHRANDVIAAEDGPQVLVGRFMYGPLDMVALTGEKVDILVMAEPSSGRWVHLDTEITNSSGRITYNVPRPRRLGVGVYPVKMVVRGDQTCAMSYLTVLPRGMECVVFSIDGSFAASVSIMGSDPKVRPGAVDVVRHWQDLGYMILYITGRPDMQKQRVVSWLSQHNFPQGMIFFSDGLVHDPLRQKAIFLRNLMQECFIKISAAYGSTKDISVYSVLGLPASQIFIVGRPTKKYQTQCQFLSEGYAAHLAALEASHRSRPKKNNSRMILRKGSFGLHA
Assay: liposome cosedimentation, SDS-PAGE densitometry
Assay type: binding
Settings: 20 mol% PA / 80 mol% PC liposomes, 20 mM Tris pH 7.5, 150 mM NaCl; one-site fit with background; 95% C.I. 110.1–789.9 µM

pKd: 3.37
Substance: phosphatidic acid [PA]
